Common to all, as to assay type: cell-based, Staphylococcus aureus
For assay [1], the system named is S. aureus (ATCC 29213). Briefly: MIC, serial broth dilution. As to conditions: MHB, 18 h, 37° C. For orientation: In broth dilution the organism is exposed to a series of concentrations in liquid medium.
Assay [2] has as its system methicillin resistant S. aureus (ATCC 33591). Briefly: MIC, serial broth dilution. As to conditions: MHB, 18 h, 37° C.
Assay [3] deals with MRSA. Briefly: Membrane depolarization with DiSC3(5) dye. Conditions: up to the highest concentration tested.
Assay [4] has as its system S. aureus (ATCC 33591). Briefly: Resistance development study, serial passage at sub MIC. Conditions: 17 serial passages at sub MIC. The procedure:
FIG. 5: Illustration of resistance development study in S. aureus (ATCC 33591) after 17 serial passages with sub MIC of 1c/1d or antibiotic treatment. The fold change in MIC is the ratio of the MIC after 17 passages relative to that MIC observed before first passage.
To determine potential of active peptidomimetics against resistance development, in vitro serial passage method at sub inhibitory concentration was done. Briefly, bacterial suspension (100 μL) from duplicate wells at the concentration of sub-MIC was used to inoculate fresh culture. The culture was grown to obtain approximately 10^5 CFU/mL for the next experiment. These bacterial suspensions were then incubated with desired concentration of antibacterial agents for 18 h to determine new MIC. The same sub culturing protocol was used for next 16 passages and MIC was determined using OD630 nm as described previously in the text [Chem. Biol., 20:1286-1295, 2013.]

Assay [5] has as its system MRSA (ATCC 33591). Briefly: Planktonic MIC in biofilm media (MICb). As to conditions: TSB with 0.5% NaCl and 0.25% glucose.
The test system of assay [6] is MRSA (ATCC 33591) biofilm. Briefly: Confocal laser scanning microscopy of biofilm, thickness by z-stacking. As to conditions: for thickness of mature biofilm after treatment: 10×MICb, untreated 23.6±2.5 μm; for thickness of mature biofilm after treatment / confocal observation of mature biofilm: 24 h preformed biofilm; for confocal observation of mature biofilm: 20×MICb; for average thickness of biofilm, biofilm formation: MICb; for average thickness of biofilm, biofilm formation / thickness of biofilm, biofilm formation: control 14.3±1.4 μm; for thickness of biofilm, biofilm formation: sub-MICb. From the text:
For visualization of biofilm and validation of AB and CV assay we performed confocal microscopy. For this biofilm formation was induced on glass cover slips in a 6-well plate. The biofilm on cover slips were washed twice with sterile NaCl/Pi buffer and stained with a Live/Dead kit reagent (Invitrogen, Molecular Probes, Eugene, Oreg., USA) following the manufacturer's instructions. This stain contains DNA binding dyes SYTO 9 (green fluorescent) and propidium iodide (PI; red fluorescent). When used alone, SYTO 9 stains all bacteria in a population, those with intact as well as damaged membranes. In contrast, PI penetrates only bacteria with damaged membranes, causing a reduction in the SYTO 9 stain (green fluorescence). The biofilms were examined with an Olympus flow view FV1000 (confocal laser scanning microscope, CLSM). The experiment was repeated three times on three different days and representative data is presented here.
We next measured the thickness of biofilm using z-stacking in confocal microscopy. […] At MICb, 1c and 1d prevented formation of biofilm in which very few cells were adhered to substratum with observed average thickness of 3.9±1.1 μm and 3.5±0.6 μm, respectively. Furthermore, at sub-MICb concentration the observed thicknesses were 5.2±0.3 μm and 5.8±0.4 μm (FIG. 7A.b and FIG. 7A.d).

≈ marks a conversion by molar mass, not a printed value.

As to `NCCCNCCCCNCCCNC(=O)C(Cc1c[nH]c2ccccc12)NC(=O)C(Cc1c[nH]c2ccccc12)NC(=O)Cc1ccc(C(F)(F)F)cc1` (stereo not drawn) [1c], in assay [1], the “MIC S. aureus (ATCC 29213)” value came out at 0.0017 µg/mL (≈ 0.00223 µM). Further, the “MIC MRSA (ATCC 33591)” value in assay [2] worked out at 3.5 µg/mL (≈ 4.6 µM). In assay [3], the “change in relative fluorescence unit (RFU), membrane depolarization” value is “only marginal changes in RFU”. The “increase in MIC after 17 passages” value in assay [4] is 4 fold. Besides, the “MICb, planktonic MIC in biofilm media” value in assay [5] was found to be 7.1 µg/mL. Also, in assay [6], the “thickness of mature biofilm after treatment” value is given as 7.1±1.5 μm; the “confocal observation of mature biofilm” value was “most of the cells lost their integrity”; the “average thickness of biofilm, biofilm formation” value is recorded as 3.9±1.1 μm; the “thickness of biofilm, biofilm formation” value is recorded as 5.2±0.3 μm.

As for `CCCCCCCCCC(=O)NC(Cc1c[nH]c2ccccc12)C(=O)NC(Cc1c[nH]c2ccccc12)C(=O)NCCCNCCCCNCCCN` (stereo not drawn) [1d], the “MIC S. aureus (ATCC 29213)” value in assay [1] worked out at 0.0017 µg/mL (≈ 0.00233 µM). Moreover, in assay [2], the “MIC MRSA (ATCC 33591)” value came out at 1.7 µg/mL (≈ 2.33 µM). Also, in assay [3], the “change in relative fluorescence unit (RFU), membrane depolarization” value was “intermediate changes in fluorescence intensity”. For the same compound, the “increase in MIC after 17 passages” value in assay [4] is reported as 2 fold. Further, the “MICb, planktonic MIC in biofilm media” value in assay [5] stood at 3.5 µg/mL. In assay [6], the “thickness of mature biofilm after treatment” value was found to be 7.0±1.0 μm; the “confocal observation of mature biofilm” value was “most of the cells lost their integrity”; the “average thickness of biofilm, biofilm formation” value is listed as 3.5±0.6 μm; the “thickness of biofilm, biofilm formation” value was determined as 5.8±0.4 μm.

For the origin of these results see patent US9738684B2, “N-terminally modified linear and branched polyamine conjugated peptidomimetics as antimicrobials agents” (COUNCIL OF SCIENTIFIC & INDUSTRIAL RESEARCH, priority 2015, dated 2017).
